How the values were obtained:
Format in all cases: functional
[1] = biological target: T1, Peroxisome proliferator-activated receptor gamma (Homo sapiens) (UniProt P37231); assay: In vitro agonist activity against human PPAR-gamma in transactivation assay at 10 nM
T1 sequence (whole entry): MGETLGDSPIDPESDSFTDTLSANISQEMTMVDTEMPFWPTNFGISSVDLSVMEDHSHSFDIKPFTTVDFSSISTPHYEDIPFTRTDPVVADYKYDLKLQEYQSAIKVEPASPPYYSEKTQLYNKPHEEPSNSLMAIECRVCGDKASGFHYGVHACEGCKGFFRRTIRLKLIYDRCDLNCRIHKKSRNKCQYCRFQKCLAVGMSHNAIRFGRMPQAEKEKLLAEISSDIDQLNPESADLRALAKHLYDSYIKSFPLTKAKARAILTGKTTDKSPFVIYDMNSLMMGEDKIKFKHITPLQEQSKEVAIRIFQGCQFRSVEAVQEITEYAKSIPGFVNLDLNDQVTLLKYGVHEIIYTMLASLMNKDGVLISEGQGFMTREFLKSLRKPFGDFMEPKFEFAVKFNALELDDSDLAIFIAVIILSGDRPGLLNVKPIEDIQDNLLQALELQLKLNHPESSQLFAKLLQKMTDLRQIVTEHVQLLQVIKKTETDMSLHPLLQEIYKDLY

[2] = biological target: T1, Peroxisome proliferator-activated receptor gamma (Homo sapiens); assay: In vitro agonist activity against human PPAR-gamma in transactivation assay at 100 nM
[3] = biological target: T1, Peroxisome proliferator-activated receptor gamma (Homo sapiens); assay: In vitro agonist activity against human PPAR-gamma receptor in transactivation assay at 1000 nM

| Structure (SMILES) | Fold activation [1] | Fold activation [2] | Fold activation [3] |
| --- | --- | --- | --- |
| CSc1cc(-c2ccc(OCCN(C)C)cc2)oc(=O)c1C#N | 4 | 6 | 7 |
| CSCCOc1ccc(-c2cc(SC)c(C#N)c(=O)o2)cc1 | 12 | 22 | 60 |
| CSc1cc(-c2ccc(OCCN3CCCCC3)cc2)oc(=O)c1C#N | 3 | 2 | 16 |
| CN(CCOc1ccc(CC2SC(=O)NC2=O)cc1)c1ccccn1 (centres undefined) | 9 | 28 | 176 |
| CSc1cc(-c2ccc(OCCc3nccc4c3CCCC4)cc2)oc(=O)c1C#N | 4 | 5 | 19 |
| COC(=O)c1c(SC)cc(-c2ccc(OCCSC)cc2)oc1=O | 9 | 13 | 44 |
| CSc1cc(-c2ccc(OCN3CCOCC3)cc2)oc(=O)c1C#N | 3 | 4 | 5 |
| CSc1cc(-c2ccc(OCCN(Cc3ccccc3)SC)cc2)oc(=O)c1C#N | 4 | 6 | 7 |
| CSc1cc(-c2ccc(OCCN(C)Cc3ccccc3)cc2)oc(=O)c1C#N | 5 | 4 | 7 |
| C[S+]([O-])CCOc1ccc(-c2cc([S+](C)[O-])c(C#N)c(=O)o2)cc1 (centres undefined) | 9 | 14 | 27 |
| COC(=O)c1c(SC)cc(-c2ccc(OCCN3CCCCC3)cc2)oc1=O | 3 | 3 | 17 |
| CSc1cc(-c2ccc(OCCSc3ccccc3)cc2)oc(=O)c1C#N | 3 | 5 | 14 |
| CCSCCOc1ccc(-c2cc(SCC)c(C#N)c(=O)o2)cc1 | 7 | 11 | 30 |
